# Data reported in patent publication US20120171123A1, “USES AND COMPOSITIONS FOR TREATMENT OF RHEUMATOID ARTHRITIS” (priority 2006, published 2012).
# What was measured:
# [1] = system: patients with RA who had failed prior treatment with infliximab; assay: Adalimumab after failed infliximab: HAQ; assay type: in vivo, human
# Description: Patients eligible to participate in the study included those with long-standing, moderate to severe RA who had terminated infliximab therapy because of lack or loss of efficacy and/or intolerance/side effects. […] Follow-up visits for safety and efficacy monitoring were scheduled at 2, 8, and 16 weeks. […] Efficacy parameters included TJC28 and SJC28; DAS28; ACR20, ACR50 Response; Moderate EULAR response; and HAQ. Subgroup analysis by reason for discontinuation included: • in case of discontinuation due to lack or loss of efficacy, patients were counted in the corresponding group regardless of additional cause of intolerance. • The subgroup “Discontinuation due to intolerance” was exclusive.
# [2] = system: patients with active rheumatoid arthritis; assay: Study A: HAQ physical function; assay type: in vivo, human
# Description: Efficacy of a treatment for rheumatoid arthritis can be determined by using the health assessment questionnaire (HAQ). Health Assessment Questionaire (HAQ) is a standardized disability questionnaire that was initially developed for use in rheumatoid arthritis (RA). […] The HAQ is a validated questionnaire designed to assess patients' ability to perform activities of daily living, particularly in adult arthritics. The instrument consists of the HAQ Disability Index (20 items), Pain Scale (1 item), and Global Health Status (1 item) that measure disability/physical functioning and quality of life (see Fries (1982) et al. J Rheumatol 9:789).
# Improvements in physical function were determined using the HAQ score.
# To evaluate the impact of prior biological therapies, patients with moderate to severe RA enrolled at 450 sites in 11 European countries plus Australia (Study A). Patients with moderate to severe RA and an inadequate response to prior DMARD therapies were enrolled in a 12-week open-label study with an optional extension phase. […] Efficacy parameters included ACR20, ACR50, ACR70, EULAR Response, HAQ, tender and swollen joint count (TJC28/SJC28), and DAS28.
# Patients with long-standing, moderate to severe RA were enrolled in Study A at 450 sites in 12 different countries. The study design for Study A is outlined in FIG. 21. […] Previous treatment with other biologics was allowed up to 8 weeks before enrollment. Patients met the following inclusion criteria: Age ≧18 years; RA (defined by American College of Rheumatology criteria) for ≧3 months; active, moderate to severe RA (Disease Activity Score (DAS28)≧3.2); unsatisfactory response or intolerance to at least one prior DMARD, including biologics. Efficacy assessments were performed at weeks 0 (baseline), 2, 6, and 12. The key outcomes measured were: change in DAS28; EULAR responses; ACR20, ACR50, ACR70 responses; changes in Tender Joint Count (TJC) and Swollen Joint Count (SJC); and change in Health Assessment Questionnaire (HAQ).
# Moderately to severely active RA was defined by Disease Activity Score 28 (DAS28)≧3.2 at baseline. Unsatisfactory response or intolerance to at least one prior DMARD was required for enrollment in Study A. A 12-week study period was followed by an optional extension phase with efficacy and routine safety evaluations performed at Weeks 2, 6, 12, 20, and every 8 weeks thereafter. […] Key efficacy parameters include ACR20, 50, and 70 responses; EULAR responses; and changes in DAS28, Tender Joint Count (TJC), Swollen Joint Count (SJC), C-Reactive Protein (CRP), and Health Assessment Questionnaire Disability Index (HAQ). […] Adverse events (AE) were collected throughout the entire treatment period, also beyond Week 52.
# [3] = system: patients with long-standing RA; assay: Study I open-label extension (adalimumab 40 mg eow + MTX): ACR response; assay type: in vivo, human; settings: 5 years, observed
# Procedure: 217 patients who completed the blinded period and participated in the extension trial for a minimum of 6 months were allowed to adjust MTX and/or corticosteroid dosages at the discretion of the principal investigators. Dose tapering was conducted according to standard medical practice with respect to controlling disease activity
# Demographic data, age, gender, disease duration, rheumatoid factor and changes in TJC, SJC, CRP, DAS28, HAQ and ACR responses were analysed. Baseline demographics and disease characteristics as well as efficacy measures at last visit (ACR 20/50/70, DAS28, HAQ) were compared between the groups. All patients, including those who discontinued from the trial, were evaluated
# Patients were eligible to enroll in Study I if they met ACR criteria for diagnosis of RA. […] Efficacy outcomes were assessed at pre-specified intervals as observed data. Treatment time was calculated beginning with the first subcutaneous injection of adalimumab at any dose, excluding time on placebo. Improvements in signs and symptoms of RA were evaluated for ACR20, ACR50, and ACR70 criteria, 28-joint count Disease Activity Score (DAS28) using the CRP-based formula, and Health Assessment Questionnaire (HAQ). Patients with changes in dosage of MTX or corticosteroids were evaluated for at least 6 months; these patients were eligible for the extension study for at least 6 months and were eligible for discretionary dose tapering. Patients were monitored for adverse events (AEs) during the entire length of the study, from signed informed consent through last visit.
# [4] = system: patients with active rheumatoid arthritis; settings: Study A (N=2008), 12 weeks; cited from earlier work
# [5] = system: patients with active rheumatoid arthritis; settings: Study A (N=2008), 12 weeks; cited from earlier work; remark: listed apart in the source
# [6] = 12 weeks, all pts in Study A (n=4241)
# [7] = 12 weeks, prior biologic: Any (n=688)
# [8] = 12 weeks, prior biologic: ETA (n=114)
# [9] = 12 weeks, prior biologic: ETA + INF (n=78)
# [10] = 12 weeks, prior biologic: INF (n=358)
# [11] = 12 weeks, prior biologic: None (n=3553)
substance,measurement,setting,value
"adalimumab: human anti-TNF mAb (HUMIRA, Abbott Laboratories), described in U.S. Pat. No. 6,090,382 as D2E7",change in HAQ,"[1]; week 16, all (n=37)",−0.25
same,change in HAQ,"[1]; week 16, infliximab stopped for intolerance (n=5)",−0.15
same,change in HAQ,"[1]; week 16, infliximab stopped for loss of response (n=19)",−0.36
same,change in HAQ,"[1]; week 16, infliximab stopped for no response (n=13)",−0.23
same,improvement in HAQ score,"[2]; 12 weeks, N=2008 analysis",−0.49
same,patients achieving HAQ<0.5,"[2]; 12 weeks, N=2008 analysis",25%
same,"Change in HAQ, mean change from baseline",[2]; [6],−0.49
same,HAQ < 0.5,[2]; [6],24%
same,"Change in HAQ, mean change from baseline",[2]; [7],−0.43
same,HAQ < 0.5,[2]; [7],13%
same,"Change in HAQ, mean change from baseline",[2]; [8],−0.36
same,HAQ < 0.5,[2]; [8],9%
same,"Change in HAQ, mean change from baseline",[2]; [9],−0.35
same,HAQ < 0.5,[2]; [9],13%
same,"Change in HAQ, mean change from baseline",[2]; [10],−0.49
same,HAQ < 0.5,[2]; [10],14%
same,"Change in HAQ, mean change from baseline",[2]; [11],−0.5
same,HAQ < 0.5,[2]; [11],26%
same,"Change in HAQ, mean change from baseline","[2]; Week 12, concomitant LEF only (n=557)",−0.47
same,"Change in HAQ, mean change from baseline","[2]; Week 12, concomitant MTX + LEF (n=123)",−0.53
same,"Change in HAQ, mean change from baseline","[2]; Week 12, concomitant MTX + SSZ",−0.53
same,"Change in HAQ, mean change from baseline","[2]; Week 12, concomitant MTX only (n=1561)",−0.52
same,"Change in HAQ, mean change from baseline","[2]; Week 12, concomitant QC/HQC (n=85)",−0.63
same,"Change in HAQ, mean change from baseline","[2]; Week 12, concomitant SSZ only (n=89)",−0.47
same,"Change in HAQ, mean change from baseline","[2]; Wk 12, concomitant MTX Im 15 mg (N=76), no other DMARD",−0.55
same,"Change in HAQ, mean change from baseline","[2]; Wk 12, concomitant MTX Iv 15 mg (N=23), no other DMARD",−0.54
same,"Change in HAQ, mean change from baseline","[2]; Wk 12, concomitant MTX Sc 15 mg (N=37), no other DMARD",−0.53
same,"Change in HAQ, mean change from baseline","[2]; Wk 12, concomitant MTX oral 15 mg (N=405), no other DMARD",−0.50
same,"Change in HAQ, mean change from baseline","[2]; Wk 12, concomitant MTX oral ≦7.5 (N=127), no other DMARD",−0.56
same,"Change in HAQ, mean change from baseline","[2]; Wk 12, concomitant MTX oral ≧20 mg (N=216), no other DMARD",−0.52
same,mean change in HAQ score from baseline,[2]; week 2,−0.32
same,mean change in HAQ score from baseline,[2]; week 6,−0.44
same,mean change in HAQ score from baseline,[2]; week 12,−0.51
same,patients achieving HAQ<0.5,[2]; week 12,5%
same,patients with a change in HAQ≧−0.22 (MCID),[2]; week 12,70%
same,change in HAQ,[2]; week 12 (n=6235),−0.52
same,patients achieving HAQ<0.5,"[2]; week 12, listed as Adalimumab",25%
same,change in HAQ,[2]; week 28 (n=4119),−0.56
same,change in HAQ,[2]; week 52 (n=1251),−0.57
same,ACR20,[3],76%
same,ACR50,[3],64%
same,ACR70,[3],39%
same,"DAS28 (mean), change from baseline",[4],−2.1
same,"EULAR response, % good",[5],34%
same,"EULAR response, % moderate",[5],82%
